The nature of the series: molar enthalpy of vaporization or sublimation. The conditions noted are these: 298.15 K, Liquid.

Structures are written as SMILES. Numbers after ± are expanded uncertainties.

As for `CC(=O)c1cc(C)sc1C` [3-acetyl-2,5-dimethylthiophene], the molar enthalpy (Vacuum drop calorimetry) came to 14.7 ± 0.621 kcal/mol.
Regarding `Cc1ccc(C)s1` [2,5-dimethylthiophene], the molar enthalpy (Calvet microcalorimetry) came out at 9.61 ± 0.43 kcal/mol.
